Measurements reported in US20250304911A1, “CYSTEINE PROTOTROPHY” (Pfizer Inc., priority 2022, published 2025).

Legend:
[1] = tested on: CBS+CTH cell pool; assay: Sequential batch culture of CBS+CTH cell pool with or without BME; type: cell-based, Chinese hamster; conditions: cysteine-free CD-CHO, 50 uM BME, FIG. 8
Description: (§1) GNMT cell pools and CBS+CTH cell pools that had been adapted to grown in cysteine-free and homocysteine-free conditions as described in Example 7 were cultivated in 3-day or 4-day sequential batch cultures in cysteine-free CD-CHO media with or without 50 uM BME with the aim of testing the growth and adapting the cells to BME free conditions.

[2] = tested on: GNMT cell pool; assay: Sequential batch culture of GNMT cell pool with or without BME; type: cell-based, Chinese hamster; conditions: cysteine-free CD-CHO, 50 uM BME, within one passage, FIG. 8
Description: as §1

[3] = tested on: GNMT clone 16; assay: Batch shake flask maintenance culture with oleic acid and ferroptosis inducers, GNMT clone 16; conditions: for Viability / Viable Cell Density: Clone 16; for Growth and viability in iron and zinc supplemented cultures compared to untreated: 12 uM ferrous sulphate, 10 uM zinc sulfate, with or without prior OA
Description: (§2) Two GNMT clones, clone 9 and 16, were cultivated for two passages in cysteine-free CD-CHO medium with and without oleic acid. In the oleic acid supplemented conditions, first passage received 1 micromolar (uM) of oleic acid and the second passage received 10 uM of oleic acid. In the third passage, the clones were cultivated in absence of OA but growth in presence of ferroptosis inducers, iron (12 uM ferrous sulphate) and zinc (10 uM zinc sulfate) to understand impact of prior culture in OA on ferroptosis.

[4] = tested on: GNMT clone 9; assay: Batch shake flask maintenance culture with oleic acid and ferroptosis inducers, GNMT clone 9; conditions: for Viability / Viable Cell Density: Clone 9
Description: as §2

[5] = tested on: GNMT clone 15; assay: pH-adjusted fedbatch culture with Fer1, OA or Vitamin K1, GNMT clone 15; type: cell-based, Chinese hamster; conditions: for Viabilities by the end of the culture, treated versus untreated: 1 uM Fer1 or 10 uM OA on days 0, 5 and 6, FIG. 11A
Description: (§3) Two GNMT clones (overexpressing CBS, CTH and GNMT), clone 15 and 19, were cultivated in pH-adjusted fedbatch cultures in multiple shake flasks. Cells were seeded at 0.5E6 cell/mL in cysteine-free internal basal medium and were fed with 1% cysteine-free, nutrient rich medium daily starting day 4. For the first set of shake flasks, cultures for each clone were treated with 1 uM of Fer1 or 10 uM of OA on days 0, 5 and 6, or left untreated. For the second set of shake flasks, cultures for each clone were treated with 10 uM of Vitamin K1 on days, 0, 4, 5 and 6. Viable cell densities and viabilities were measured on various days during the fedbatch culture.

[6] = tested on: CBS+CTH cells (CHO cell pools overexpressing CBS and CTH); assay: Growth of CBS+CTH cell pool in L-homocysteine supplemented cysteine free CD CHO medium; type: cell-based, Chinese hamster; conditions: FIG. 4
Description: (§4) Next, the growth of CHO cell pools overexpressing CBS and CTH (referred to as “CBS+CTH” cells) or overexpressing CBS, CTH and GNMT (referred to as “GNMT” cells) was evaluated in cysteine free CD CHO medium or L-homocysteine supplemented cysteine free CD CHO medium. […] Subsequently, as described in more detail in Example 7, the CBS+CTH and the GNMT cell pools were adapted to grow in L-homocysteine free conditions. For both the CBS+CTH and GNMT cell pools, gene expression levels of CTH, CBS, GNMT and MTR were measured before and after adaptation to L-homocysteine free conditions (Table 5).

[7] = tested on: GNMT cells (CHO cell pools overexpressing CBS, CTH and GNMT); assay: Growth of GNMT cell pool in L-homocysteine supplemented cysteine free CD CHO medium; type: cell-based, Chinese hamster; conditions: FIG. 4
Description: as §4

[8] = tested on: GNMT clone 19; assay: pH-adjusted fedbatch culture with Fer1, OA or Vitamin K1, GNMT clone 19; type: cell-based, Chinese hamster; conditions: 10 uM Vitamin K1 on days 0, 4, 5 and 6, FIG. 11B
Description: as §3

[9] = +10 uM OA (prior passages), Day 0, CD CHO alone, + 12 uM FeSO4 or + 10 uM ZnSO4
[10] = +10 uM OA (prior passages), Day 3, CD CHO alone, + 12 uM FeSO4 or + 10 uM ZnSO4
[11] = +10 uM OA (prior passages), Day 4, CD CHO alone, + 12 uM FeSO4 or + 10 uM ZnSO4
[12] = No OA, Day 0, CD CHO + 12 uM FeSO4 or + 10 uM ZnSO4
[13] = No OA, Day 3, CD CHO + 12 uM FeSO4 or + 10 uM ZnSO4
[14] = No OA, Day 4, CD CHO + 12 uM FeSO4 or + 10 uM ZnSO4

In the case of `OCCS` [BME, beta mercaptoethanol], the “Growth and viabilities between BME-free and BME containing conditions” value [1] is reported as “significantly different growth and viabilities” and the “Growth and viability in BME free conditions versus with BME” value [2] is reported as “comparable”.
In the case of `O=S(=O)([O-])[O-].[Fe+2]` [FeSO4, ferrous sulphate], the Viability [3, 9] is reported as 99.6%, the “Viable Cell Density” value [3, 9] is reported as 3.63 E5 c/mL and the Viability [3, 10] is reported as 98.6%. For the same molecule, the “Viable Cell Density” value [3, 10] was 19.21 E5 c/mL, the Viability [3, 11] was 99.2% and the “Viable Cell Density” value [3, 11] was 40.8 E5 c/mL. The Viability [3, 12] was 98.7%, the “Viable Cell Density” value [3, 12] was 4.02 E5 c/mL and the Viability [3, 13] was 98.5%. For the same molecule, the “Viable Cell Density” value [3, 13] was 14.07 E5 c/mL, the Viability [3, 14] was 99.1% and the “Viable Cell Density” value [3, 14] was 31.09 E5 c/mL. For the same molecule, the “Growth and viability in iron and zinc supplemented cultures compared to untreated” value ([3]; clone 16, third passage) was “lower”, the Viability [4, 9] was 99.6% and the “Viable Cell Density” value [4, 9] was 3.45 E5 c/mL. The Viability [4, 10] was 99.2%, the “Viable Cell Density” value [4, 10] was 21.94 E5 c/mL and the Viability [4, 11] was 99.1%. For the same molecule, the “Viable Cell Density” value [4, 11] was 38.38 E5 c/mL, the Viability [4, 12] was 100% and the “Viable Cell Density” value [4, 12] was 3.54 E5 c/mL. For the same molecule, the Viability [4, 13] was 99.2%, the “Viable Cell Density” value [4, 13] was 19.65 E5 c/mL and the Viability [4, 14] was 99.3%. For the same molecule, the “Viable Cell Density” value [4, 14] was 39.74 E5 c/mL.
`CCOC(=O)c1ccc(NC2CCCCC2)c(N)c1` [Fer1, ferrostatin 1] was tested, and the “Viabilities by the end of the culture, treated versus untreated” value [5] was “slightly higher viabilities”.
In the case of `NC(CCS)C(=O)O` [L-homocysteine, 2-amino-4-sulfanylbutanoic acid], the “Growth in L-homocysteine supplemented cysteine free medium” value [6] is reported as “exhibited growth” and the “Growth in L-homocysteine supplemented cysteine free medium” value [7] is reported as “exhibited growth”.
`CCCCCCCC/C=C\CCCCCCCC(=O)O` [OA, oleic acid] was tested, and the “Viable Cell Density” value [3, 9] was 4.44 E5 c/mL, the “Viable Cell Density” value [3, 10] was 22.52 E5 c/mL and the “Viable Cell Density” value [3, 11] was 48.33 E5 c/mL. The “Growth and viabilities of OA exposed versus unexposed conditions” value ([3]; clone 16, third passage, prior passages with 1 uM then 10 uM oleic acid) was “higher growth and viabilities”, the “Viabilities by the end of the culture, treated versus untreated” value [5] was “slightly higher viabilities” and the “Viable Cell Density” value [4, 9] was 3.85 E5 c/mL. For the same molecule, the “Viable Cell Density” value [4, 10] was 21.99 E5 c/mL, the “Viable Cell Density” value [4, 11] was 42.9 E5 c/mL and the “Benefit of exposure to OA on growth and viability” value ([4]; clone 9, third passage, prior passages with 1 uM then 10 uM oleic acid) was “not observed”.
For `CC1=C(C/C=C(\C)CCC[C@H](C)CCC[C@H](C)CCCC(C)C)C(=O)c2ccccc2C1=O` [Vitamin K1], the “Growth and viability with Vitamin K1 supplementation” value ([5]; 10 uM Vitamin K1 on days 0, 4, 5 and 6, FIG. 11B) was “improved growth and viability” and the “Growth and viability with Vitamin K1 supplementation” value [8] was “improved growth and viability”.
For `O=S(=O)([O-])[O-].[Zn+2]` [ZnSO4, zinc sulfate], the Viability [3, 9] was 99.6%, the “Viable Cell Density” value [3, 9] was 3.84 E5 c/mL and the Viability [3, 10] was 96.2%. For the same molecule, the “Viable Cell Density” value [3, 10] was 13.62 E5 c/mL, the Viability [3, 11] was 96% and the “Viable Cell Density” value [3, 11] was 32.19 E5 c/mL. The Viability [3, 12] was 99.2%, the “Viable Cell Density” value [3, 12] was 4.31 E5 c/mL and the Viability [3, 13] was 94.9%. The “Viable Cell Density” value [3, 13] was 12.27 E5 c/mL, the Viability [3, 14] was 94.1% and the “Viable Cell Density” value [3, 14] was 23.99 E5 c/mL. For the same molecule, the “Growth and viability in iron and zinc supplemented cultures compared to untreated” value ([3]; clone 16, third passage) was “lower”, the Viability [4, 9] was 98.9% and the “Viable Cell Density” value [4, 9] was 3.11 E5 c/mL. For the same molecule, the Viability [4, 10] was 97.7%, the “Viable Cell Density” value [4, 10] was 16.78 E5 c/mL and the Viability [4, 11] was 96.4%. For the same molecule, the “Viable Cell Density” value [4, 11] was 30.16 E5 c/mL, the Viability [4, 12] was 100% and the “Viable Cell Density” value [4, 12] was 3.55 E5 c/mL. For the same molecule, the Viability [4, 13] was 97.9%, the “Viable Cell Density” value [4, 13] was 17.26 E5 c/mL and the Viability [4, 14] was 96.7%. For the same molecule, the “Viable Cell Density” value [4, 14] was 32.29 E5 c/mL.
